{
  "source": "patent US20040229230A1",
  "about": "“Method for gene isolation by Cre-trap cloning” (priority 2002, published 2004)",
  "key": {"[1]": {"test_system": "parent BW cell line (BW5147 murine thymoma)", "experiment": "Culture of parent BW cell line in ganciclovir (HSVTK activity assessment)", "type": "cell-based", "conditions": "5 μM ganciclovir; parent BW cell line without HSVTK", "experimental": "(§1) BW subclones with varying levels of GFPCre expression were tested for functional Cre recombinase and HSVTK activity. The pCT.1 (pCT.1^AMP) vector was transiently transfected into each cell line followed by recovery and analysis of plasmid configuration (pCT.1^AMP vs. pCT.1^CAT). Maximal conversion would result in equimolar ratios of pCT.1^AMP and pCT.1^CAT due to the reversible nature of the reaction. […] The kinetics of conversion in cell lines expressing different levels of GFPCre was evaluated. To assess HSVTK activity, all of the cell lines were cultured in 5 μM ganciclovir. […] No spontaneous revertants were isolated, which, given the culture conditions, puts the spontaneous reversion rate at <10^−8."}, "[2]": {"test_system": "GFPCre:IRES:HSVTK expressing clones (BW5147 subclones)", "experiment": "Culture of GFPCre:IRES:HSVTK expressing BW clones in ganciclovir (HSVTK activity assessment)", "type": "cell-based, murine", "conditions": "5 μM ganciclovir", "excerpt": "2.1 GFPCre:IRES:HSVTK cassette function: A retroviral vector was generated with the cDNA encoding the GFPCre fusion protein followed by an […] ribosomal entry site (IRES) and the cDNA encoding HSVTK (FIG. 2). In addition, the upstream activating sequence (UAS) which binds the Gal4 transcriptional trans-activator was cloned upstream of the GFPCre cDNA (FIG. 2). The BW5147 thymoma was infected with this retrovirus, and subclones (BW-1, 5, 41 and 50) expressing different levels of the GFPCre fusion protein were identified by flow cytometry (FIG. 3).\nas §1"}},
  "data": [
    {"compound": "Nc1nc(O)c2ncn(COC(CO)CO)c2n1", "note": "[ganciclovir]", "values": [
      {"measurement": "growth in media with ganciclovir", "setting": "[1]", "result": "normal growth"},
      {"measurement": "growth/survival in media with ganciclovir", "setting": "[2]", "result": "all died"}
    ]}
  ]
}
